Source: patent US9403813B2, “Azetidine amide derivatives as orexin receptor antagonists” (ACTELION PHARMACEUTICALS LTD, priority 2013, dated 2016)

Assays:
[1] = biological target: human orexin-1 receptor (Homo sapiens (Human), UniProt O43613); experiment: Intracellular calcium measurements (FLIPR), antagonism of orexin-A response; assay type: cell-based; settings: CHO cells expressing human orexin-1 receptor, 3 nM orexin-A, geometric mean if determined several times, read-out: IC50 OX1
How it was run: (§1)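 CHO cells expressing human OX1 or OX2 receptor, loaded with fluo-4 AM plus probenecid, preincubated with antagonist 120 min before 3 nM orexin-A challenge. FLIPR calcium peak heights compared with agonist-plus-vehicle response. IC50 possibly normalized to on-plate reference; geometric mean of repeat determinations.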

[2] = biological target: human orexin-2 receptor (Homo sapiens (Human), UniProt O43614); experiment: as above; assay type: cell-based; settings: CHO cells expressing human orexin-2 receptor, 3 nM orexin-A, geometric mean if determined several times, read-out: IC50 OX2
How it was run: as §1

Sequence of human orexin-1 receptor (O43613 whole entry): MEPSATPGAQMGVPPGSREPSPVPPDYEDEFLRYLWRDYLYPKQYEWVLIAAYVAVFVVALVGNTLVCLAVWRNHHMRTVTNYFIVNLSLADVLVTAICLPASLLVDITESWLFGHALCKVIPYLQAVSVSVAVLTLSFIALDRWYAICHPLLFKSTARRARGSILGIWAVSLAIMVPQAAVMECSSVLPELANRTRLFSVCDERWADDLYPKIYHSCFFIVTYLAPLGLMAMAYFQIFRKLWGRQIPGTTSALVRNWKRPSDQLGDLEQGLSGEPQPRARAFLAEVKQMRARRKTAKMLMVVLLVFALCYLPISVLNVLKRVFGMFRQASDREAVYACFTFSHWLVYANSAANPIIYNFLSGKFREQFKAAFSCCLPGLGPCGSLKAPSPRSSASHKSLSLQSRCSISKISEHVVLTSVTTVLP
Sequence of human orexin-2 receptor (O43614 whole entry): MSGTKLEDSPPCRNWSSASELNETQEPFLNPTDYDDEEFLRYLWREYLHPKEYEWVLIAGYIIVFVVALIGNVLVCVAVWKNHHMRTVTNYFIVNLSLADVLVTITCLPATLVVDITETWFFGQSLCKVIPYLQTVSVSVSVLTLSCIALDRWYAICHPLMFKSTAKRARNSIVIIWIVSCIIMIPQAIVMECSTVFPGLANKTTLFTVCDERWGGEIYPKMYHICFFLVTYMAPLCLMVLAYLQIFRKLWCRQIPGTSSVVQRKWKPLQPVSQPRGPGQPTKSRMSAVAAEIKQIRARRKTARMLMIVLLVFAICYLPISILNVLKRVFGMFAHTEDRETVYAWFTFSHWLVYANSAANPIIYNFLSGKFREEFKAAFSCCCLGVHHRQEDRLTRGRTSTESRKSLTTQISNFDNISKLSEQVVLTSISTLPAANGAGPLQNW

SMILES | IC50 [1] [nM] | IC50 [2] [nM]
CCOc1ncccc1-c1nc([C@@H]2CCN2C(=O)c2ccc(C)cc2-n2nccn2)no1 [Example 97, {(S)-2-[5-(2-Ethoxy-pyridin-3-yl)-[1,2,4]oxadiazol-3-yl]-azetidin-1-yl}-(4-methyl-2-[1,2,3]triazol-2-yl-phenyl)-methanone] | 257 | 10
Cc1c(Cl)cccc1-c1nc([C@@H]2CCN2C(=O)c2ccccc2-n2nccn2)no1 [Example 100, {(S)-2-[5-(3-Chloro-2-methyl-phenyl)-[1,2,4]oxadiazol-3-yl]-azetidin-1-yl}-(2-[1,2,3]triazol-2-yl-phenyl)-methanone] | 820 | 34
COc1cc(C(=O)N2CC[C@H]2c2noc(-c3cccc(Cl)c3C)n2)c(-n2nccn2)cc1Cl [Example 104, (4-Chloro-5-methoxy-2-[1,2,3]triazol-2-yl-phenyl)-{(S)-2-[5-(3-chloro-2-methyl-phenyl)-[1,2,4]oxadiazol-3-yl]-azetidin-1-yl}-methanone] | 181 | 2
Cc1ccc(C(=O)N2CC[C@H]2c2noc(-c3cccc(Cl)c3C)n2)c(-n2nccn2)c1 [Example 106, {(S)-2-[5-(3-Chloro-2-methyl-phenyl)-[1,2,4]oxadiazol-3-yl]-azetidin-1-yl}-(4-methyl-2-[1,2,3]triazol-2-yl-phenyl)-methanone] | 330 | 9
Cc1c(Cl)cccc1-c1nc([C@@H]2CCN2C(=O)c2ccc(Cl)cc2-n2nccn2)no1 [Example 107, {(S)-2-[5-(3-Chloro-2-methyl-phenyl)-[1,2,4]oxadiazol-3-yl]-azetidin-1-yl}-(4-chloro-2-[1,2,3]triazol-2-yl-phenyl)-methanone] | 317 | 13
Cc1c(Cl)cccc1-c1nc([C@@H]2CCN2C(=O)c2ccc(C(F)(F)F)cc2-n2nccn2)no1 [Example 108, {(S)-2-[5-(3-Chloro-2-methyl-phenyl)-[1,2,4]oxadiazol-3-yl]-azetidin-1-yl}-(2-[1,2,3]triazol-2-yl-4-trifluoromethyl-phenyl)-methanone] | 759 | 28
COc1c(Cl)cccc1-c1nc([C@@H]2CCN2C(=O)c2cc(C)ccc2-n2nccn2)no1 [Example 109, {(S)-2-[5-(3-Chloro-2-methoxy-phenyl)-[1,2,4]oxadiazol-3-yl]-azetidin-1-yl}-(5-methyl-2-[1,2,3]triazol-2-yl-phenyl)-methanone] | 132 | 3
Cc1c(Cl)cccc1-c1nc([C@@H]2CCN2C(=O)c2cc(F)ccc2-c2ncccn2)no1 [Example 115, {(S)-2-[5-(3-Chloro-2-methyl-phenyl)-[1,2,4]oxadiazol-3-yl]-azetidin-1-yl}-(5-fluoro-2-pyrimidin-2-yl-phenyl)-methanone] | 984 | 122
COc1cc(C(=O)N2CC[C@H]2c2noc(-c3cccc(Cl)c3C)n2)c(-c2ncccn2)cc1C [Example 116, {(S)-2-[5-(3-Chloro-2-methyl-phenyl)-[1,2,4]oxadiazol-3-yl]-azetidin-1-yl}-(5-methoxy-4-methyl-2-pyrimidin-2-yl-phenyl)-methanone] | 561 | 5

Now those with a lower IC50 [1], led by results:

IC50 [1] [nM] | IC50 [2] [nM] | SMILES
122 | 5 | Cc1cc(-n2nccn2)c(C(=O)N2CC[C@H]2c2noc(-c3cccc(Cl)c3C)n2)cc1Cl [Example 105, {(S)-2-[5-(3-Chloro-2-methyl-phenyl)-[1,2,4]oxadiazol-3-yl]-azetidin-1-yl}-(5-chloro-4-methyl-2-[1,2,3]triazol-2-yl-phenyl)-methanone]
88 | 8 | Cc1ccc(-n2nccn2)c(C(=O)N2CC[C@H]2c2noc(-c3cccc(Cl)c3C)n2)c1 [Example 101, {(S)-2-[5-(3-Chloro-2-methyl-phenyl)-[1,2,4]oxadiazol-3-yl]-azetidin-1-yl}-(5-methyl-2-[1,2,3]triazol-2-yl-phenyl)-methanone]
83 | 1 | CCOc1ncccc1-c1nc([C@@H]2CCN2C(=O)c2cc(OC)c(Cl)cc2-n2nccn2)no1 [Example 98, (4-Chloro-5-methoxy-2-[1,2,3]triazol-2-yl-phenyl)-{(S)-2-[5-(2-ethoxy-pyridin-3-yl)-[1,2,4]oxadiazol-3-yl]-azetidin-1-yl}-methanone]
82 | 0.7 | COc1cc(C(=O)N2CC[C@H]2c2noc(-c3cccc(Cl)c3OC)n2)c(-n2nccn2)cc1C [Example 111, {(S)-2-[5-(3-Chloro-2-methoxy-phenyl)-[1,2,4]oxadiazol-3-yl]-azetidin-1-yl}-(5-methoxy-4-methyl-2-[1,2,3]triazol-2-yl-phenyl)-methanone]
70 | 1 | COc1cc(C(=O)N2CC[C@H]2c2noc(-c3cccc(Cl)c3OC)n2)c(-n2nccn2)cc1Cl [Example 112, {(S)-2-[5-(3-Chloro-2-methoxy-phenyl)-[1,2,4]oxadiazol-3-yl]-azetidin-1-yl}-(4-chloro-5-methoxy-2-[1,2,3]triazol-2-yl-phenyl)-methanone]
59 | 2 | COc1cc(C(=O)N2CC[C@H]2c2noc(-c3cccc(Cl)c3C)n2)c(-n2nccn2)cc1C [Example 103, {(S)-2-[5-(3-Chloro-2-methyl-phenyl)-[1,2,4]oxadiazol-3-yl]-azetidin-1-yl}-(5-methoxy-4-methyl-2-[1,2,3]triazol-2-yl-phenyl)-methanone]
51 | 1 | COc1c(Cl)cccc1-c1nc([C@@H]2CCN2C(=O)c2cc(Cl)c(C)cc2-n2nccn2)no1 [Example 113, {(S)-2-[5-(3-Chloro-2-methoxy-phenyl)-[1,2,4]oxadiazol-3-yl]-azetidin-1-yl}-(5-chloro-4-methyl-2-[1,2,3]triazol-2-yl-phenyl)-methanone]
46 | 1 | COc1c(Cl)cccc1-c1nc([C@@H]2CCN2C(=O)c2cc(C)c(C)cc2-n2nccn2)no1 [Example 110, {(S)-2-[5-(3-Chloro-2-methoxy-phenyl)-[1,2,4]oxadiazol-3-yl]-azetidin-1-yl}-(4,5-dimethyl-2-[1,2,3]triazol-2-yl-phenyl)-methanone]
41 | 2 | Cc1cc(C(=O)N2CC[C@H]2c2noc(-c3cccc(Cl)c3C)n2)c(-n2nccn2)cc1C [Example 102, {(S)-2-[5-(3-Chloro-2-methyl-phenyl)-[1,2,4]oxadiazol-3-yl]-azetidin-1-yl}-(4,5-dimethyl-2-[1,2,3]triazol-2-yl-phenyl)-methanone]
26 | 2 | Cc1ccc(-c2ccccc2)c(C(=O)N2CC[C@H]2c2noc(-c3cccc(Cl)c3C)n2)c1 [Example 114, {(S)-2-[5-(3-Chloro-2-methyl-phenyl)-[1,2,4]oxadiazol-3-yl]-azetidin-1-yl}-(4-methyl-biphenyl-2-yl)-methanone]
20 | 1 | CCOc1ncccc1-c1nc([C@@H]2CCN2C(=O)c2cc(Cl)c(C)cc2-n2nccn2)no1 [Example 99, (5-Chloro-4-methyl-2-[1,2,3]triazol-2-yl-phenyl)-{(S)-2-[5-(2-ethoxy-pyridin-3-yl)-[1,2,4]oxadiazol-3-yl]-azetidin-1-yl}-methanone]
